Starred links: 1 amine or outer side, 2 acyl side, 3 side chain; linkers in the order of their positions; H or OH if unused. Positions of bridges follow the written chain, without caps; N, C: chain ends. Non-standard residues stand in square brackets, D forms with d. Residues, ends and D or L forms follow the SMILES beside them. *: point of attachment. Trp(5-F) = N[C@@H](Cc1c[nH]c2ccc(F)cc12)C(=O)O; X45 = O=C(CCC(=O)[*:1])NCc1ccc(CCN[*:2])cc1; Pro(cis-4-F) = O=C(O)[C@@H]1C[C@H](F)CN1; X4 = O=C(CCSCc1cccc(CSCCN[*:1])c1)[*:2]; Propanoyl(3,3,3-F3) = O=C(CC(F)(F)F)*; AEF = NCCOc1ccc(C[C@H](N)C(=O)O)cc1; X6 = O=C(Cc1ccc(CN[*:2])cc1)[*:1]; Aad = N[C@@H](CCCC(=O)O)C(=O)O; aThr = C[C@H](O)[C@H](N)C(=O)O; αMeP = C[C@@]1(C(=O)O)CCCN1; X28 = CC(C)(F)C(=O)*; X37 = O=C(CC1CC1)*
What was measured:
Type in all cases: binding
PCSK9 [1] = target: T1, PCSK9 (Homo sapiens (Human), UniProt Q8NBP7); test: PCSK9 Alexa FRET Standard assay (displacement of AlexaFluor647 tagged cyclic peptide Reagent A); conditions: PCSK9 Alexa FRET Standard assay, 0.5 nM PCSK9, 20 nM AF cyclic peptide Reagent A; read-out: IC50
T1 sequence (Q8NBP7 153-692): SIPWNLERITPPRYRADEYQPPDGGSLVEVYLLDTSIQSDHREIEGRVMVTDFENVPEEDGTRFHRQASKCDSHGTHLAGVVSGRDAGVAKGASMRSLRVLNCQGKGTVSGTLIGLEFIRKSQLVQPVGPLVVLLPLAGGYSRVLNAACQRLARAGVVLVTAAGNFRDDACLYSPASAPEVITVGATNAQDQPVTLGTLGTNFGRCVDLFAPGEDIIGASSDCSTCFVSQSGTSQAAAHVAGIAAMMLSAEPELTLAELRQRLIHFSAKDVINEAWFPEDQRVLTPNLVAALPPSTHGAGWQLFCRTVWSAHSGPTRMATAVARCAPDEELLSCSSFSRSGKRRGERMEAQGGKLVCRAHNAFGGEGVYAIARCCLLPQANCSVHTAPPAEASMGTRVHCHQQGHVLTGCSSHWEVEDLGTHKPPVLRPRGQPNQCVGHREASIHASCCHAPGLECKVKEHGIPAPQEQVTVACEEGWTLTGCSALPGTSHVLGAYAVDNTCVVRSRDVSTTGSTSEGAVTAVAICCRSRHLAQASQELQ
Outline: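 TR-FRET displacement: 0.5 nM biotinylated PCSK9 with 1.25 nM Strep-Eu and 20 nM AlexaFluor-tagged cyclic peptide (final) in 50 mM HEPES pH 7.4, 0.15 M NaCl, 5 mM CaCl2, 0.01% BSA, 0.01% P20, ≥2 h at room temperature. IC50 from sigmoidal fit, converted to Ki via peptide KD; falling Eu counts flagged false positives.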

PCSK9 [2] = target: T1, PCSK9; test: PCSK9 Alexa FRET Plus assay (displacement of AlexaFluor647 tagged cyclic peptide Reagent B); conditions: 0.5 nM PCSK9, 960 nM AF cyclic peptide Reagent B
Protocol: A solution containing 1 nM biotinylated PCSK9+2.5 nM Lance Streptavidin Europium (Strep-Eu) was made in 50 mM HEPES pH 7.4, 0.15 M NaCl, 5 mM CaCl2), 0.01% BSA, and 0.01% Surfactant P20. A separate solution containing 1920 nM of the AlexaFluor tagged cyclic peptide was made in the same buffer system. An Echo was used to transfer 0.075 ul of compound plus 0.675 ul of DMSO to each well of an assay plate followed by the addition of 15 ul of PCSK9+Stept-Eu and 15 ul of AF peptide. The final assay volume was 30.750 ul containing 0.5 nM PCSK9, 1.25 nM Strep-Eu, and 960 nM AF cyclic peptide. The reaction was incubated at room temperature for at least two hours prior to fluorescence measurements using an Envision Multilabel Reader. IC50 values were determined by fitting data to a sigmoidal dose-response curve using nonlinear regression. Ki was then calculated from the IC50 and the KD of AF cyclic peptide. Counts (B-counts) of the europium-labeled PCSK9 were followed to observe if compounds were adversely affecting PCSK9. A fall off of the B-counts likely indicated a false positive of inhibition. Data from this procedure was reported as “P=‘numerical value’ (nanomolar)”

[3] = target: human PCSK9 / human LDLR EGFa domain interaction (Homo sapiens (Human), UniProt Q8NBP7); test: TR-FRET assay of inhibition of the PCSK9-LDLR protein-protein interaction; conditions: TR-FRET, 20 nM human PCSK9, 20 nM human LDLR EGFa domain, 2 hours room temperature; read-out: IC50
Chain of human PCSK9 / human LDLR EGFa domain interaction (Q8NBP7 153-692): as above
Chain of human PCSK9 / human LDLR EGFa domain interaction (Q8NBP7 31-152 partner): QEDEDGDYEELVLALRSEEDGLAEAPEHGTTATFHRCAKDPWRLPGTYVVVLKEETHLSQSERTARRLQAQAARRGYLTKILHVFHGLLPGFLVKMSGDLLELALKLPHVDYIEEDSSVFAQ
Outline: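 Half-maximal inhibitory concentrations came from 4-parameter fits of dose-response data. Proteins: biotinylated PCSK9, His-tagged LDLR EGFa, 20 nM each; labels 5 nM; 2 h, room temperature; buffer 50 mM HEPES, 150 mM NaCl, 5 mM CaCl2.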

[4] = Alexa FRET Plus, read-out: IC50

Compound	IC50 (PCSK9 [1]) [nM]	IC50 (PCSK9 [2]; [4]) [nM]	IC50 (PCSK9 [2]; IC50, Alexa FRET Plus) [nM]	IC50 [3] [nM]
COc1ccc(C[C@@H]2NC(=O)[C@H]([C@H](C)O)NC(=O)[C@H]3CCCN3C(=O)[C@H](Cc3c[nH]c4ccc(F)cc34)NC(=O)[C@H](Cc3c[nH]c4ccc(F)cc34)NC(=O)[C@@H](C)NC(=O)[C@H](CCCCN)NC(=O)CCSCc3cccc(c3)CSCCNC(=O)[C@]3(C)CCCN3C2=O)cc1 [Compound 103] (cyclo(K[dA][Trp(5-F)][Trp(5-F)][dP][aThr]Y(Me)[αMeP][X4]))	0.11 to 100	500 to 5000		
C[C@@]12CCCN1C(=O)[C@H](Cc1ccc(O)cc1)NC(=O)CN1C(=O)[C@@H](CCc3ccccc31)NC(=O)[C@H](Cc1c[nH]c3ccc(F)cc13)NC(=O)[C@H](Cc1c[nH]c3ccc(F)cc13)NC(=O)CNC(=O)[C@H](CCCCN)NC(=O)CCSCc1cccc(c1)CSC[C@@H](C(N)=O)NC2=O [Compound 109]	0.11 to 100	100 to 500		
COc1ccc(C[C@@H]2NC(=O)[C@H]([C@H](C)O)NC(=O)[C@@H]3C[C@H](F)CN3C(=O)[C@H](Cc3c[nH]c4ccc(F)cc34)NC(=O)[C@H](Cc3c[nH]c4ccc(F)cc34)NC(=O)[C@@H](C)NC(=O)[C@H](CCCCN)NC(=O)CCC(=O)NCc3ccc(cc3)CCNC(=O)[C@]3(C)CCCN3C2=O)cc1 [Compound 111] (K[dA][Trp(5-F)][Trp(5-F)][Pro(cis-4-F)][aThr]Y(Me)[αMeP]; linker N-C via X45)	0.11 to 100		0.1 to 100	
COc1ccc(C[C@@H]2NC(=O)[C@H]([C@@H](C)O)NC(=O)[C@@H]3C[C@H](F)CN3C(=O)[C@H](Cc3c[nH]c4ccc(F)cc34)NC(=O)[C@H](Cc3c[nH]c4ccc(F)cc34)NC(=O)[C@@H](C)NC(=O)[C@H](CCCCN)NC(=O)[C@@H](NC(=O)C(C)(C)F)CC(=O)NCCOc3ccc(cc3)C[C@@H](C(N)=O)NC(=O)[C@]3(C)CCCN3C2=O)cc1 [Compound 112] (X28-DK[dA][Trp(5-F)][Trp(5-F)][Pro(cis-4-F)]TY(Me)[αMeP][AEF]-NH2; lactam 1-10)	0.11 to 100	100 to 500		
COc1ccc(C[C@@H]2NC(=O)[C@@H]3CCCCC(=O)N[C@H]4C[C@@H](C(=O)N3)N(C4)C(=O)[C@H](Cc3c[nH]c4ccc(F)cc34)NC(=O)[C@H](Cc3c[nH]c4ccc(F)cc34)NC(=O)[C@@H](C)NC(=O)[C@H](CCCN)NC(=O)CCSCc3cccc(c3)CCSCNC(=O)[C@]3(C)CCCN3C2=O)cc1 [Compound 521]	0.11 to 100			0.1 to 100
COc1ccc(C[C@@H]2NC(=O)[C@H](Cc3cnc[nH]3)NC(=O)[C@H](CC(=O)O)NC(=O)[C@H](Cc3c[nH]c4ccc(F)cc34)NC(=O)[C@H](Cc3c[nH]c4ccc(F)cc34)NC(=O)[C@@H](C)NC(=O)[C@H](NC(C)=O)CCCCNC(=O)Cc3ccc(cc3)CNC(=O)CCC[C@@H](C(N)=O)NC(=O)[C@]3(C)CCCN3C2=O)cc1 [Compound 523] (Ac-[dK][dA][Trp(5-F)][Trp(5-F)]DHY(Me)[αMeP][Aad]-NH2; linker 1-9 via X6)	100 to 1000			0.1 to 100

Now from value to molecule, other results behind:

IC50 (PCSK9 [1]) [nM]	IC50 (PCSK9 [2]; [4]) [nM]	Compound	IC50 (PCSK9 [2]; IC50, Alexa FRET Plus) [nM]	IC50 [3] [nM]
0.11 to 100	500 to 5000	COc1ccc(C[C@@H]2NC(=O)[C@H]([C@@H](C)O)NC(=O)[C@@H]3C[C@H](F)CN3C(=O)[C@H](Cc3c[nH]c4ccc(F)cc34)NC(=O)[C@H](Cc3c[nH]c4ccc(F)cc34)NC(=O)[C@@H](C)NC(=O)[C@H](CCCCN)NC(=O)[C@@H](NC(=O)CC3CC3)CC(=O)NCCOc3ccc(cc3)C[C@@H](C(N)=O)NC(=O)[C@]3(C)CCCN3C2=O)cc1 [Compound 108] (X37-DK[dA][Trp(5-F)][Trp(5-F)][Pro(cis-4-F)]TY(Me)[αMeP][AEF]-NH2; lactam 1-10)		
21000 to 50000	500 to 5000	COc1ccc(C[C@@H]2NC(=O)[C@H]([C@@H](C)O)NC(=O)[C@@H]3C[C@H](F)CN3C(=O)[C@H](Cc3c[nH]c4ccc(F)cc34)NC(=O)[C@H](Cc3c[nH]c4ccc(F)cc34)NC(=O)[C@@H](C)NC(=O)[C@H](CCCCN)NC(=O)[C@@H](NC(=O)CC(F)(F)F)CC(=O)NCCOc3ccc(cc3)C[C@@H](C(N)=O)NC(=O)[C@]3(C)CCCN3C2=O)cc1 [Compound 114] ({Propanoyl(3,3,3-F3)}-DK[dA][Trp(5-F)][Trp(5-F)][Pro(cis-4-F)]TY(Me)[αMeP][AEF]-NH2; lactam 1-10)		

— patent US11530244B2, “Cyclic polypeptides for PCSK9 inhibition” (priority 2018, dated 2022)
